Reference: ChEMBL document CHEMBL2040800 (J Med Chem, 2012)
≈ marks a conversion by molar mass, not a printed value. Calls of active or inactive are those of the source. No cut-off for these calls is given here.

Columns and labels:
[1] = Solubility of the compound at 10 uM; assay type: physicochemical
[2] = tested on: L6; experiment: Cytotoxicity against rat L6 cells after 72 hrs by alamar blue assay; assay type: cell-based; details: l6, 72 h
[3] = AUC (0 to infinity) in Sprague-Dawley rat at 20.2 mg/kg, po; assay type: ADME, organism-based; set-up: time infinity, dose 20.2 mg/kg, route oral; details: plasma
[4] = tested on: Plasmodium berghei; experiment: Antimalarial activity against Plasmodium berghei ANKA expressing GFP infected in po dosed Sprague-Dawley rat assessed as reduction in parasitemia administered as single dose measured on day 3 post-infection by flow cytometry; assay type: functional; details: 72 h
[5] = Apparent terminal half life in Sprague-Dawley rat at 20.2 mg/kg, po; assay type: ADME, organism-based; set-up: dose 20.2 mg/kg, route oral; details: in vivo, read-out: betat1/2(app) (converted)
[6] = Cmax in Sprague-Dawley rat at 20.2 mg/kg, po; assay type: ADME, organism-based; set-up: dose 20.2 mg/kg, route oral; details: in vivo
[7] = tested on: Plasmodium berghei; experiment: Antimalarial activity against Plasmodium berghei ANKA expressing GFP infected in Sprague-Dawley rat assessed as reduction in parasitemia at 30 mg/kg, po administered as single dose measured on day 3 post-infection by flow cytometry; assay type: functional; set-up: scale not given: the % may be the effect or the level left
[8] = Plasma protein binding in human by reverse phase gradient HPLC analysis; assay type: ADME, cell-free; details: read-out: PPB (converted)
[9] = Toxicity in rabbit ventricular wedge assessed as change in […] at 2 uM; assay type: tissue-based, Oryctolagus cuniculus, Cardiac ventricle
[10] = tested on: Plasmodium berghei; experiment: Antimalarial activity against Plasmodium berghei ANKA expressing GFP infected in Sprague-Dawley rat assessed as reduction in parasitemia at 3 mg/kg, po administered as single dose measured on day 3 post-infection by flow cytometry; assay type: functional; set-up: scale not given: the % may be the effect or the level left
[11] = tested on: Salmonella typhimurium; experiment: Genotoxicity in Salmonella typhimurium by Ames test; assay type: toxicity, organism-based; details: salmonella enterica subsp. enterica serovar typhimurium
[12] = target: Cytochrome P450 2C19 (Homo sapiens, UniProt P33261); experiment: Inhibition of CYP2C19-mediated (S)-mephenytoin 4'-hydroxylation in human liver microsomes; assay type: ADME, Microsome
Cytochrome P450 2C19, sequence (P33261 whole entry): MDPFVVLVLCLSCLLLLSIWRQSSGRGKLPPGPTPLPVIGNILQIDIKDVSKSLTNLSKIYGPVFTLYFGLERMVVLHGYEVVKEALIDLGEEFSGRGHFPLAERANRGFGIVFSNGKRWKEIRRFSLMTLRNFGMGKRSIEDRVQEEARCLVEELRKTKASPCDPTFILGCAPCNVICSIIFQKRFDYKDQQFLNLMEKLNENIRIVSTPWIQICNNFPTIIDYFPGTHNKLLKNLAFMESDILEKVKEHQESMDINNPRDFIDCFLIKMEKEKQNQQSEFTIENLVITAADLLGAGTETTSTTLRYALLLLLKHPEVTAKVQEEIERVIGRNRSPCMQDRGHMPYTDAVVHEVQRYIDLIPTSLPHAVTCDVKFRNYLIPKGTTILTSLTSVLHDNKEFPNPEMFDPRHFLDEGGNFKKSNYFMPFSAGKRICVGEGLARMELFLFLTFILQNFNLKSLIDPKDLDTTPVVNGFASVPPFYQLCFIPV

[13] = Volume of distribution at steady state in Sprague-Dawley rat at 3.2 mg/kg, iv; assay type: ADME, organism-based; set-up: dose 3.2 mg/kg, route intravenous; details: plasma, read-out: Vdss
[14] = tested on: Plasmodium berghei; experiment: Antimalarial activity against Plasmodium berghei ANKA expressing GFP infected in Sprague-Dawley rat assessed as mean survival days of host at 30 mg/kg, po administered as single dose; assay type: functional
[15] = target: Cytochrome P450 2D6 (Homo sapiens, UniProt P10635); experiment: Inhibition of CYP2D6-mediated dextromethorphan O-demethylation in human liver microsomes; assay type: ADME, Microsome
Cytochrome P450 2D6, sequence (P10635 whole entry): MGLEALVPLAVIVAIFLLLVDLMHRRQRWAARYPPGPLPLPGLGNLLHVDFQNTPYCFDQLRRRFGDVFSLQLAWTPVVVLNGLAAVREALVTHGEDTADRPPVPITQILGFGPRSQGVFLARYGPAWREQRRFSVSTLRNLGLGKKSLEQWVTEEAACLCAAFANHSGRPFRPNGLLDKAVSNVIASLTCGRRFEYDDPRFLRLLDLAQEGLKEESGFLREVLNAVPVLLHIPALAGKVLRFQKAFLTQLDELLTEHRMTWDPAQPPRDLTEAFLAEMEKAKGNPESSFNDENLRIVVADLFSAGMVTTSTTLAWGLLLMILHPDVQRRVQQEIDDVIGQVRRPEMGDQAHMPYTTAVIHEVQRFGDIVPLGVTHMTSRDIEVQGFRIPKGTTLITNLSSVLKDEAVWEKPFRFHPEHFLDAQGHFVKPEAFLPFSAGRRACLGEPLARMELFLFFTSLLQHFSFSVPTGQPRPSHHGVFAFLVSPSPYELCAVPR

[16] = Half life in human liver microsomes at 1 uM; assay type: ADME, Microsome
[17] = target: Cytochrome P450 3A4/3A5 (Homo sapiens, UniProt P08684+P20815); experiment: Inhibition of CYP3A4/CYP3A5-mediated testosterone 6beta-hydroxylation in human liver microsomes; assay type: ADME, Microsome
[18] = Total plasma clearance in Sprague-Dawley rat at 3.2 mg/kg, iv; assay type: ADME, organism-based; set-up: dose 3.2 mg/kg, route intravenous
[19] = tested on: Plasmodium berghei; experiment: Antimalarial activity against Plasmodium berghei ANKA expressing GFP infected in Sprague-Dawley rat assessed as total cure from parasite at 30 mg/kg, po administered as single dose measured on day 30 post-infection by flow cytometry; assay type: functional, organism-based; set-up: dose 30 mg/kg
[20] = Apparent terminal half life in Sprague-Dawley rat at 3.2 mg/kg, iv; assay type: ADME, organism-based; set-up: dose 3.2 mg/kg, route intravenous; details: in vivo, read-out: betat1/2(app) (converted)
[21] = Kinetic solubility of the compound in phosphate buffer after 30 mins by nephelometry at pH 6.5; assay type: physicochemical; details: read-out: Kinetic_solubility
[22] = tested on: Plasmodium berghei; experiment: Antimalarial activity against Plasmodium berghei ANKA expressing GFP infected in Sprague-Dawley rat assessed as mean survival days of host at 100 mg/kg, po administered as single dose; assay type: functional
[23] = Intrinsic clearance in human liver microsomes at 1 uM up to 60 mins; assay type: ADME, Microsome; details: read-out: CLH
[24] = tested on: Plasmodium berghei; experiment: Antimalarial activity against Plasmodium berghei ANKA expressing GFP infected in Sprague-Dawley rat assessed as total cure from parasite at 50 mg/kg, po administered as 4 doses measured on day 30 post-infection by flow cytometry; assay type: functional, organism-based; set-up: dose 50 mg/kg
[25] = AUC (0 to infinity) in Sprague-Dawley rat at 3.2 mg/kg, iv; assay type: ADME, organism-based; set-up: time infinity, dose 3.2 mg/kg, route intravenous; details: plasma
[26] = target: Cytochrome P450 2C9 (Homo sapiens, UniProt P11712); experiment: Inhibition of CYP2C9-mediated tolbutamide methylhydroxylation in human liver microsomes; assay type: ADME, Microsome
Cytochrome P450 2C9, sequence (P11712 whole entry): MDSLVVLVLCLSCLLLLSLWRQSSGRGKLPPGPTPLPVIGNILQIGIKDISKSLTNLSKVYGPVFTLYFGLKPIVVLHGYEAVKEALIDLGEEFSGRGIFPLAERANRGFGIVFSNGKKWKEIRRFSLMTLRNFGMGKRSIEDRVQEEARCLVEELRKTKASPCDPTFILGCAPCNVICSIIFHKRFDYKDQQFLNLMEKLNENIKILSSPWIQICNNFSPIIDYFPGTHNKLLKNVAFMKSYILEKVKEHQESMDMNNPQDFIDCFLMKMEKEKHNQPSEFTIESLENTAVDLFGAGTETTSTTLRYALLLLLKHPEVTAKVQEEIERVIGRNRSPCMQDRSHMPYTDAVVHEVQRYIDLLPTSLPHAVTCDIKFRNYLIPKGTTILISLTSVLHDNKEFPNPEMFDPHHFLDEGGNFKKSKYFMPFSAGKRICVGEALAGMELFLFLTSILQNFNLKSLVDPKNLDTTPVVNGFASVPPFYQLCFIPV

[27] = tested on: Plasmodium berghei; experiment: Antimalarial activity against Plasmodium berghei ANKA expressing GFP infected in Sprague-Dawley rat assessed as reduction in parasitemia at 100 mg/kg, po administered as single dose measured on day 3 post-infection by flow cytometry; assay type: functional; set-up: scale not given: the % may be the effect or the level left
[28] = tested on: Plasmodium berghei; experiment: Antimalarial activity against Plasmodium berghei ANKA expressing GFP infected in Sprague-Dawley rat assessed as mean survival days of host at 3 mg/kg, po administered as single dose; assay type: functional
[29] = Toxicity in rabbit ventricular wedge assessed as change in QT at 2 uM; assay type: tissue-based, Oryctolagus cuniculus, Cardiac ventricle
[30] = Toxicity in rabbit ventricular wedge assessed as change in TP-e at 2 uM; assay type: tissue-based, Oryctolagus cuniculus, Cardiac ventricle
[31] = tested on: Plasmodium falciparum; experiment: Antimalarial activity against chloroquine-resistant Plasmodium falciparum K1 after 24 hrs by hypoxanthine incorporation assay; assay type: functional, organism-based; details: K1, 24 h
[32] = tested on: Plasmodium berghei; experiment: Antimalarial activity against Plasmodium berghei ANKA expressing GFP infected in Sprague-Dawley rat assessed as reduction in parasitemia at 10 mg/kg, po administered as single dose measured on day 3 post-infection by flow cytometry; assay type: functional; set-up: scale not given: the % may be the effect or the level left
[33] = Partition coefficient, log D of the compound at pH 7.4 by phase gradient HPLC analysis; assay type: physicochemical; details: octanol/water
[34] = tested on: Plasmodium berghei; experiment: Antimalarial activity against Plasmodium berghei ANKA expressing GFP infected in Sprague-Dawley rat assessed as mean survival days of host at 10 mg/kg, po administered as single dose; assay type: functional
[35] = Oral bioavailability in Sprague-Dawley rat at 20.2 mg/kg; assay type: ADME, organism-based; details: in vivo
[36] = tested on: Plasmodium berghei; experiment: Antimalarial activity against Plasmodium berghei ANKA expressing GFP infected in Sprague-Dawley rat assessed as mean survival days of host at 50 mg/kg, po administered as 4 doses; assay type: functional
[37] = Tmax in Sprague-Dawley rat at 20.2 mg/kg, po; assay type: ADME, organism-based; set-up: dose 20.2 mg/kg, route oral; details: in vivo
[38] = tested on: Plasmodium berghei; experiment: Antimalarial activity against Plasmodium berghei ANKA expressing GFP infected in Sprague-Dawley rat assessed as reduction in parasitemia at 50 mg/kg, po administered as 4 doses measured on day 4 post-infection by flow cytometry; assay type: functional; set-up: scale not given: the % may be the effect or the level left
[39] = target: T1, Cytochrome P450 1A2 (Homo sapiens, UniProt P05177); experiment: Inhibition of CYP1A2-mediated phenacetin O-deethylation in human liver microsomes; assay type: ADME, Microsome
T1 sequence (P05177 whole entry): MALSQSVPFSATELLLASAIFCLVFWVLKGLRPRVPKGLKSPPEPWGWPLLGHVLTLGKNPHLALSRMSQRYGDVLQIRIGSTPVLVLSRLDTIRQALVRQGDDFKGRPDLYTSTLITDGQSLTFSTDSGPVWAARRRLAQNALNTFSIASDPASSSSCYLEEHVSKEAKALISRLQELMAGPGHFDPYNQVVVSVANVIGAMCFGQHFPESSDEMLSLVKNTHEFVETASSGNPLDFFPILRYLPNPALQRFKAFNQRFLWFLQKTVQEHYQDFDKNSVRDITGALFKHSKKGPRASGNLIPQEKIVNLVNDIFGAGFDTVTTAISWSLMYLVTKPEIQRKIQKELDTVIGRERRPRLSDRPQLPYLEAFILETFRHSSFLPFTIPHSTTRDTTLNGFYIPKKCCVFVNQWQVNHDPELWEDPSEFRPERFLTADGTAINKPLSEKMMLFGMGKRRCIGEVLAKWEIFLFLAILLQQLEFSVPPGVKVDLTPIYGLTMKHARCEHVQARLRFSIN

[40] = tested on: Plasmodium berghei; experiment: Antimalarial activity against Plasmodium berghei ANKA expressing GFP infected in Sprague-Dawley rat assessed as total cure from parasite at 100 mg/kg, po administered as single dose measured on day 30 post-infection by flow cytometry; assay type: functional, organism-based; set-up: dose 100 mg/kg
[41] = Apparent terminal half life in Sprague-Dawley rat at […], iv; assay type: ADME, organism-based; set-up: dose 4.7 mg/kg, route intravenous; details: in vivo, read-out: betat1/2(app) (converted)
[42] = Total plasma clearance in Sprague-Dawley rat at […], iv; assay type: ADME, organism-based; set-up: dose 4.7 mg/kg, route intravenous
[43] = tested on: Rattus norvegicus; experiment: Toxicity in Sprague-Dawley rat assessed as impaired coordination at 30 mg/kg, po administered as single dose; assay type: organism-based; set-up: dose 30 mg/kg, route oral; details: in vivo
[44] = Volume of distribution at steady state in Sprague-Dawley rat at […], iv; assay type: ADME, organism-based; set-up: dose 4.7 mg/kg, route intravenous; details: in vivo, read-out: Vdss
[45] = Cmax in Sprague-Dawley rat at 21.7 mg/kg, po; assay type: ADME, organism-based; set-up: dose 21.7 mg/kg, route oral; details: in vivo
[46] = Apparent terminal half life in Sprague-Dawley rat at 21.7 mg/kg, po; assay type: ADME, organism-based; set-up: dose 21.7 mg/kg, route oral; details: in vivo, read-out: betat1/2(app) (converted)
[47] = tested on: Plasmodium falciparum; experiment: Antimalarial activity against chloroquine-sensitive Plasmodium falciparum NF54 after 24 hrs by hypoxanthine incorporation assay; assay type: functional, organism-based; details: NF54, 24 h
[48] = tested on: Rattus norvegicus; experiment: Toxicity in Sprague-Dawley rat assessed as impaired coordination at 50 mg/kg, po administered as 4 doses measured post-third dose; assay type: organism-based; set-up: dose 50 mg/kg, route oral; details: in vivo
[49] = Tmax in Sprague-Dawley rat at 21.7 mg/kg, po; assay type: ADME, organism-based; set-up: dose 21.7 mg/kg, route oral; details: in vivo
[50] = AUC (0 to infinity) in Sprague-Dawley rat at 21.7 mg/kg, po; assay type: ADME, organism-based; set-up: time infinity, dose 21.7 mg/kg, route oral; details: plasma
[51] = Oral bioavailability in Sprague-Dawley rat at 21.7 mg/kg; assay type: ADME, organism-based; details: in vivo
[52] = AUC (0 to infinity) in Sprague-Dawley rat at […], iv; assay type: ADME, organism-based; set-up: time infinity, dose 4.7 mg/kg, route intravenous; details: plasma

## CS(=O)(=O)c1ccc(-c2cnc(N)c(-c3ccc(C(F)(F)F)nc3)c2)cc1 [MMV-048]
[1]
  solubility: Insoluble
[2]
  Activity: 251.4 µM
[3]
  AUC(0-inf): 74.2 µM·h
[4]
  ED50: 0.83 mg/kg
  ED90: 1.7 mg/kg
[5]
  half-life: 8.5 h
[6]
  Cmax: 8 µM
[7]
  Activity: 99.3%
[8]
  fraction unbound: 0.139
[9]
  Activity: Non-toxic
[10]
  Activity: 98%
[11]
  Activity: Non-toxic
[12]
  INH: > 20 µM
[13]
  Vd: 2.7 L/kg
[14]
  MSD: >30 days
[15]
  INH: > 20 µM
[16]
  half-life at 1 µM: > 8.33 h
[17]
  INH: > 20 µM
[18]
  clearance: 0.39 L/h/kg
[19]
  Activity: Active
[20]
  half-life: 7.3 h
[21]
  solubility kinetic at 0.5 h: 6.3 µg/mL (≈ 16 µM)
[22]
  MSD: >30 days
[23]
  microsomal CLint at 1 µM: < 1.4 µL/min/mg
[24]
  Activity: Active
[25]
  AUC(0-inf): 23.4 µM·h
[26]
  INH: > 20 µM
[27]
  Activity: 99.5%
[28]
  MSD: 8 days
[29]
  Activity: Non-toxic
[30]
  Activity: Non-toxic
[31]
  IC50: 0.025 µM
[32]
  Activity: 98%
[33]
  chromatographic logD: 2.6
[34]
  MSD: 13 days
[35]
  bioavailability: 51%
[36]
  MSD: >30 days
[37]
  Tmax: 2.5 h
[38]
  Activity: 99.7%
[39]
  INH: > 20 µM
[40]
  Activity: Active

## CS(=O)(=O)c1ccc(-c2cnc(N)c(-c3ccc(C(F)(F)F)cc3)c2)cc1
[41]
  half-life: 11.3 h
[42]
  clearance: 1.74 L/h/kg
[7]
  Activity: 97.3%
[8]
  fraction unbound: 0.038
[43]
  Activity: Non-toxic
[14]
  MSD: 15 days
[44]
  Vd: 8 L/kg
[16]
  half-life at 1 µM: > 4.17 h
[45]
  Cmax: 1 µM
[46]
  half-life: 6 h
[47]
  IC50: 0.019 µM
[21]
  solubility kinetic at 0.5 h: < 1.6 µg/mL
[48]
  Activity: Toxic
[23]
  microsomal CLint at 1 µM: < 7 µL/min/mg
[49]
  Tmax: 3.25 h
[50]
  AUC(0-inf): 8.27 µM·h
[31]
  IC50: 0.02 µM
[51]
  bioavailability: 26%
[32]
  Activity: 98%
[33]
  chromatographic logD: 3.4
[34]
  MSD: 9 days
[52]
  AUC(0-inf): 6.98 µM·h
